ChEMBL document CHEMBL1201862, “PubChem BioAssay data set” (2004)
One block for each compound: values may come before it. Active and inactive are the calls of the source.

How the values were obtained:
[1] = target: T1, Caspase-3 (Homo sapiens, UniProt P42574); assay type: functional;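 note: Dose-response selectivity test against caspase-3 for candidate inhibitors of sentrin-specific proteases (SENPs)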
T1 sequence (P42574 whole entry): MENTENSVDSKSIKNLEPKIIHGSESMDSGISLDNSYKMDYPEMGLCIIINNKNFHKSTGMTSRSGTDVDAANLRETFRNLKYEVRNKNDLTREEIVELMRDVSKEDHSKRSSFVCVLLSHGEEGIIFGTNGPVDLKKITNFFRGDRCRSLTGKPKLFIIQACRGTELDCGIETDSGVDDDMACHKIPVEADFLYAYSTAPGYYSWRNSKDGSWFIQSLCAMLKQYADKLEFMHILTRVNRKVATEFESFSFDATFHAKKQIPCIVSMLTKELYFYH

[2] = target: T2, Sentrin-specific protease 7 (Homo sapiens, UniProt Q9BQF6); assay type: functional;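 note: Luminescence-based dose-response confirmation of ultra-high-throughput screening hits, measuring inhibition of SENP7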
T2 sequence (Q9BQF6 whole entry): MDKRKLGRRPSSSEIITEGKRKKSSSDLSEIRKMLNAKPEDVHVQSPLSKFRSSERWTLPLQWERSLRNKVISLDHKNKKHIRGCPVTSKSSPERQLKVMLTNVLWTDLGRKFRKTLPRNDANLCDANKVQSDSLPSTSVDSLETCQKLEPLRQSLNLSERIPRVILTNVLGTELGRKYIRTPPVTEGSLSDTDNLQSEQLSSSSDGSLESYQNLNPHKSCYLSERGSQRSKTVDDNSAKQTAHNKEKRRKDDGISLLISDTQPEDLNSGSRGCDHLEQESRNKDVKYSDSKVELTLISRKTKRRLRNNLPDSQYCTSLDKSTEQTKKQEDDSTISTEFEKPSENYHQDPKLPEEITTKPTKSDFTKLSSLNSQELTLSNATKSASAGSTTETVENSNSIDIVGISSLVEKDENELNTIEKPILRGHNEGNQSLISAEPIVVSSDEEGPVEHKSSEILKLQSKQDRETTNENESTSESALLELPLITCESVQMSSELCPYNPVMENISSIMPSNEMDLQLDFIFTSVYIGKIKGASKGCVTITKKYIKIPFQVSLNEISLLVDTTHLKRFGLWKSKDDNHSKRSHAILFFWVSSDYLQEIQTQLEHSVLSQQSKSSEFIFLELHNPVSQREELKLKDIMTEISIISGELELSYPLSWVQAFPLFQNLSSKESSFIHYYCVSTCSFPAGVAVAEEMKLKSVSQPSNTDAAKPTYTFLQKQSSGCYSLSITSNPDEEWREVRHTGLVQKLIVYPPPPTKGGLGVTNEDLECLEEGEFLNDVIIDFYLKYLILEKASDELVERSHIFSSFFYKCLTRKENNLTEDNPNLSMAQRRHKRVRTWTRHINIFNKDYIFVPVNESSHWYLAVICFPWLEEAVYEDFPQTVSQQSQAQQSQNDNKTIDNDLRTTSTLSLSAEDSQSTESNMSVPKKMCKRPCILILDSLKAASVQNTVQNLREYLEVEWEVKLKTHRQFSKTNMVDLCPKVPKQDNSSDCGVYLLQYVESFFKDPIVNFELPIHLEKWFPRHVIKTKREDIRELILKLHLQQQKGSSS

[3] = target: T3, Sentrin-specific protease 6 (Homo sapiens, UniProt Q9GZR1); assay type: functional;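 note: Luminescence-based dose-response confirmatory assay of SENP6 inhibition, following up an ultra-high-throughput screen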
T3 sequence (Q9GZR1 whole entry): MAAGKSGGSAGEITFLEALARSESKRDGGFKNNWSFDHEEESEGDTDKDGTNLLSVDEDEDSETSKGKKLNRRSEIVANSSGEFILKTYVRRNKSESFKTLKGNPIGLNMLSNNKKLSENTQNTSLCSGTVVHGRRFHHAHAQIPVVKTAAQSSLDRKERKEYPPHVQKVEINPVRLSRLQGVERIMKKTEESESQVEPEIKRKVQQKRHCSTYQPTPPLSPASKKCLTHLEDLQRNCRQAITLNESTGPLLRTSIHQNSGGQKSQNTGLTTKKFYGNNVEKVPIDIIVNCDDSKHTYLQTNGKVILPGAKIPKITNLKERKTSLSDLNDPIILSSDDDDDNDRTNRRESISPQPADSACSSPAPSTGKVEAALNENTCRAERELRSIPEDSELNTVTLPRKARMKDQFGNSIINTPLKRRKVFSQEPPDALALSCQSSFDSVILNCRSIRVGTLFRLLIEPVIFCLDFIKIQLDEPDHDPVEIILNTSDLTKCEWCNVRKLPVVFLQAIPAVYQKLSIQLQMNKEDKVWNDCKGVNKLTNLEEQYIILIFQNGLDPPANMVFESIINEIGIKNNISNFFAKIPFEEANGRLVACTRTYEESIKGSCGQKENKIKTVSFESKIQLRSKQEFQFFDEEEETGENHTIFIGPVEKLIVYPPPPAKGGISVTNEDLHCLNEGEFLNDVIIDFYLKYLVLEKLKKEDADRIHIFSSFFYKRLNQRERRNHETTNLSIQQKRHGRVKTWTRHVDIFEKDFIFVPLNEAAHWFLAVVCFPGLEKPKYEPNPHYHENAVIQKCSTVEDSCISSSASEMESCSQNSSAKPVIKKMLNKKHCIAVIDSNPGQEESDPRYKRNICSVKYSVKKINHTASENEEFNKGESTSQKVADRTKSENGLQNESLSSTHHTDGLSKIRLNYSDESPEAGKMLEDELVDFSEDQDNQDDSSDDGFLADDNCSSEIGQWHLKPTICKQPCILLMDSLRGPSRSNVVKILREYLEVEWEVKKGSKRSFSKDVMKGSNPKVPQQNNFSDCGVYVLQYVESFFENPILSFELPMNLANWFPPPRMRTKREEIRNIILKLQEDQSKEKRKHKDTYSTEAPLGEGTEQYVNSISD

[4] = target: FAD-linked sulfhydryl oxidase ALR (Homo sapiens, UniProt P55789); assay: ALR-catalysed DTT oxidation blockers – biochemical, H2O2 detection, luminescence, cherry-pick, dose response (AID 493248)
Sequence of FAD-linked sulfhydryl oxidase ALR (P55789 whole entry): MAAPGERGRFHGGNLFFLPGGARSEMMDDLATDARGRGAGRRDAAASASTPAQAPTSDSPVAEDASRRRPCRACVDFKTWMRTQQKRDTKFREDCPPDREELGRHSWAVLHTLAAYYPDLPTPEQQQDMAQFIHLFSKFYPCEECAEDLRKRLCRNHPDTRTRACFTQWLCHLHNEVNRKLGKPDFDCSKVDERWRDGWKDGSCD

[5] = target: T4, Sentrin-specific protease 8 (Homo sapiens, UniProt Q96LD8); assay type: functional;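 note: luminescence read-out of SENP8 inhibition, dose-response confirmation following an ultra-high-throughput screen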
T4 sequence (Q96LD8 whole entry): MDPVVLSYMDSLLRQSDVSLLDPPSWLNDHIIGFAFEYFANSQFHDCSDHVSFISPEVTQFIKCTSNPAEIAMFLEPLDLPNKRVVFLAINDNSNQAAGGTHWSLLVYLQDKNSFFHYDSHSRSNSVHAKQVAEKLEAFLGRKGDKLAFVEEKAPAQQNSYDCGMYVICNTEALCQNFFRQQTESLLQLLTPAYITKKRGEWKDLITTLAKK

[6] = target: T5, Oxysterols receptor LXR-beta (Homo sapiens, UniProt P55055); assay type: functional, cell-based;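 note: agonist activity at LXR measured by a cell-based luminescence readout across a dose range, run as a counterscreen for daf-12 agonists; HEK293 cells with Gal4-LXR fusion and GAL4-driven luciferase reporter; potency for activation of Gal4-LXR reporter so compounds are agonists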
T5 sequence (P55055 whole entry): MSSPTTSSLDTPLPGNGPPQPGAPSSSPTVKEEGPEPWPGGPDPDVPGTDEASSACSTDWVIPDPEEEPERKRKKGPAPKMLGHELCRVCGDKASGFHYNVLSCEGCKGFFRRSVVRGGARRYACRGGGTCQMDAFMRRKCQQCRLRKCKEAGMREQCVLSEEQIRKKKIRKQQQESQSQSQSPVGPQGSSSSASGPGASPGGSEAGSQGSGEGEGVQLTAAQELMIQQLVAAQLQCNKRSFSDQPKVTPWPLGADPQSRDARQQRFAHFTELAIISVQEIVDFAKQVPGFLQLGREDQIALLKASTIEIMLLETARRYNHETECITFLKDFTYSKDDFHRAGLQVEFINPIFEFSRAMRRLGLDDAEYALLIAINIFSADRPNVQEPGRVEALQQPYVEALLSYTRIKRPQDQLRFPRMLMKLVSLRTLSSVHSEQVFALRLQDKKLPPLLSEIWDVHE

[7] = A549 cell cytotoxicity, dose response, cytotoxicity control, plate reader, cherry-pick, antagonist series (AID 743412); assay type: functional, cell-based
[8] = toxicity toward HepG2 liver cells – cell-based, plate reader, cherry-pick, antagonist series, cytotoxicity control, dose response (AID 743416); assay type: functional
[9] = blockers of bursicon-stimulated LGR2 cAMP reporter – cell-based, HEK293, CRE-luciferase reporter, cherry pick, set 2, dose response (AID 743343); assay type: functional;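 note: transfected cells were stimulated with diluted bursicon conditioned medium after compound addition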
[10] = blockade of melanocortin 4 receptor signaling – cell-based, plate reader, cherry pick, counter-screen for LGR2 antagonist project, dose response (AID 743444); assay type: functional;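 note: transfected HEK 293 cells stimulated with alpha-MSH peptide; potency of inhibitors of the alpha-MSH evoked signal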
[11] = viability loss in HEK293 cells – cell-based, plate reader, cherry-picked samples, cytotoxicity control, dose response (AID 743446); assay type: functional
[12] = target: T6, Aminopeptidase N (Plasmodium falciparum FcB1/Columbia, UniProt O96935); assay: malaria alanyl aminopeptidase activity blockers – biochemical, fluorogenic H-Leu-NHMec substrate, 1536-well (AID 1445); parameters: species or system Plasmodium falciparum 3D7, 3D7
T6 sequence (O96935 whole entry): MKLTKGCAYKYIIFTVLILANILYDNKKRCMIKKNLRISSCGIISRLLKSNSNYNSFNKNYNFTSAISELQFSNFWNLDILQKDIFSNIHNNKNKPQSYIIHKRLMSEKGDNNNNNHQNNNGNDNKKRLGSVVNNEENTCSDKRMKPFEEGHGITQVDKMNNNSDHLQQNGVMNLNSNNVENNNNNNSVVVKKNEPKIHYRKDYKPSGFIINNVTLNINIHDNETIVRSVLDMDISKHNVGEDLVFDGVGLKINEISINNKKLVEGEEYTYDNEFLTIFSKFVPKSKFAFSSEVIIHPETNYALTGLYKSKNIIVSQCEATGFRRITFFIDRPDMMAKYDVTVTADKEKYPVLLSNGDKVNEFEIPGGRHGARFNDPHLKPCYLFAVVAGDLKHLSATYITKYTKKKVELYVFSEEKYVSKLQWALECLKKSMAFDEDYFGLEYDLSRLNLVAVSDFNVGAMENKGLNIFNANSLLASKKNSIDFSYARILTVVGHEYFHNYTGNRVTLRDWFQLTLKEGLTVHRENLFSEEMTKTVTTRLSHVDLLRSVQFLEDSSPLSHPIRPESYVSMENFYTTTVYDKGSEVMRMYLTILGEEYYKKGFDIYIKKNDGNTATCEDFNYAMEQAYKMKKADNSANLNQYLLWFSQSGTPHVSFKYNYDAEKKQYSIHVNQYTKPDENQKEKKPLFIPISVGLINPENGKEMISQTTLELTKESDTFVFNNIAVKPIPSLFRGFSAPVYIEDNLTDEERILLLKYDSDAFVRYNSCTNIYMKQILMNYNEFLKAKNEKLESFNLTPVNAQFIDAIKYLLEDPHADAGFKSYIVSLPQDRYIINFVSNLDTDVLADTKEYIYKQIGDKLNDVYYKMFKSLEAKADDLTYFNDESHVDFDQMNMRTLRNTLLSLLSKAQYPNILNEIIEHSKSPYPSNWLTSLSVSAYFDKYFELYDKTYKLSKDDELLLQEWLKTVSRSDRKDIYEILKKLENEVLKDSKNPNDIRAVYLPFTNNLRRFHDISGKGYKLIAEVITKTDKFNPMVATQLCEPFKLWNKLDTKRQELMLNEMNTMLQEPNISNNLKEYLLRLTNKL

[13] = target: T7, Polyadenylate-binding protein 1 (Homo sapiens, UniProt P11940); assay: MLLE binding blockers, Cy5 peptide tracer – biochemical, fluorescence polarization, Cy5-PAM2 peptide, secondary, miRNA deadenylation inhibitor project, dose response (AID 602260); assay type: functional; details: read-out: IC50_Mean
T7 sequence (P11940 whole entry, the tested form may be a part): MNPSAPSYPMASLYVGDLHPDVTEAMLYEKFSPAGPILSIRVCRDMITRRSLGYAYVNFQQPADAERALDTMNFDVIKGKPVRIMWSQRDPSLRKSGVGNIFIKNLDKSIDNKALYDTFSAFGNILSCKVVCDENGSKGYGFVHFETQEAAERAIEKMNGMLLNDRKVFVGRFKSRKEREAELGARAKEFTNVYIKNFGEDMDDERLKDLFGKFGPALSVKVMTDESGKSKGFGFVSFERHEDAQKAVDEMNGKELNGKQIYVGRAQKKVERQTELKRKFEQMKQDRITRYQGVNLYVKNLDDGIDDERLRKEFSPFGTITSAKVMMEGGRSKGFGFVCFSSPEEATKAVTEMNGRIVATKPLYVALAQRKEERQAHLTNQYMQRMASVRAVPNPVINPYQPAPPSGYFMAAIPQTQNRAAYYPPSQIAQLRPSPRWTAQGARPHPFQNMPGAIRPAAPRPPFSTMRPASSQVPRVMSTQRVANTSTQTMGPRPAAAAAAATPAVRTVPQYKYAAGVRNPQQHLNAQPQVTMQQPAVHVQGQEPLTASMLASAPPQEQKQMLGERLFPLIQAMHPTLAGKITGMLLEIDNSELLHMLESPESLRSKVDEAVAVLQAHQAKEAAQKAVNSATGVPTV

[14] = target: T7, Polyadenylate-binding protein 1; assay: MLLE domain peptide-binding blockers, IC50 – biochemical, fluorescence polarization, FITC-PAM2 peptide, dose response (AID 602259); assay type: functional; details: read-out: IC50_Mean
[15] = target: Endoplasmic reticulum aminopeptidase 1 (Homo sapiens, UniProt Q9NZ08); assay: inhibition of human ERAP1 enzyme activity – biochemical, cherry-pick, set 2, plate reader, dose response (AID 743314)
Sequence of Endoplasmic reticulum aminopeptidase 1 (Q9NZ08 whole entry): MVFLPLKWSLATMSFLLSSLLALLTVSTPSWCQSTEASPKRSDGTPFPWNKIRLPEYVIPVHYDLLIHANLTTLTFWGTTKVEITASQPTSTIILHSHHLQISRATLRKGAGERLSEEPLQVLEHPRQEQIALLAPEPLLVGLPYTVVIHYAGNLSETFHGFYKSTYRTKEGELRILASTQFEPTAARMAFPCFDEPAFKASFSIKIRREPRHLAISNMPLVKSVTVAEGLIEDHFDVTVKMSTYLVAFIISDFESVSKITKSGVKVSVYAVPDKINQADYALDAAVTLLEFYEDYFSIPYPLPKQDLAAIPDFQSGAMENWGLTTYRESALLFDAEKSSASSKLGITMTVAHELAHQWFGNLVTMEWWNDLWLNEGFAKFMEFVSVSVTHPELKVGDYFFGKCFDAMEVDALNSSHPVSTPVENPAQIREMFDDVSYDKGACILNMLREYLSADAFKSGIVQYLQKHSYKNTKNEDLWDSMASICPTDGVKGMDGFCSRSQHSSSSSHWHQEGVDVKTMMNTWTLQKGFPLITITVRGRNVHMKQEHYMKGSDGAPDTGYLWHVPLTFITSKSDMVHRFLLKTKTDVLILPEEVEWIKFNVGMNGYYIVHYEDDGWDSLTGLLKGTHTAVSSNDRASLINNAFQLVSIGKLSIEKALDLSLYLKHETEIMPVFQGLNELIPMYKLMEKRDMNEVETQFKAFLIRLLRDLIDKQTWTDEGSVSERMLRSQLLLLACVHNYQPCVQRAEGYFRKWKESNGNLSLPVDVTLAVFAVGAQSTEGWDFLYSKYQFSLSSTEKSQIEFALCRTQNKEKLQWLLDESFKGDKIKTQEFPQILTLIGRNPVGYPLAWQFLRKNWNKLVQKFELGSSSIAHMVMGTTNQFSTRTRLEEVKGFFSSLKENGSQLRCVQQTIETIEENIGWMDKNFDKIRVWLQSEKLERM

IC50 [1]: 34.5 µM (active) | IC50 [2]: 9.64 µM (active) | IC50 [3]: 25.8 µM (active) | AC50 [4]: 1.29 µM (active) | EC50 [6]: > 67.6 µM (inactive)
SMILES: Cc1cccc(N=Nc2cnc(N)s2)c1
IC50 [5]: 19.1 µM (active)

SMILES: N#C[C@H]1[C@H](c2ccc(C#Cc3ccccc3F)cc2)[C@H](CO)N1C(=O)C1CC1
AC50 [7]: 23.9 µM (active) | AC50 [8]: 34.7 µM (active) | AC50 [9]: 16.4 µM (active) | AC50 [10]: 12.8 µM (active) | AC50 [11]: 15.4 µM (active)

IC50 [12]: 48.6 µM (active) | IC50 [13]: > 66 µM (inactive) | IC50 [14]: 39.1 µM (inactive) | AC50 [15]: 4.88 µM (active)
SMILES: CCN(CC)Cc1c(O)c(Cl)cc2c(C)cc(=O)oc12

AC50 [15]: 6.65 µM (active)
SMILES: CCCN1[C@@H]2c3ccc(/C=C/c4ccccc4)c(=O)n3C[C@H]1[C@H](CO)[C@H]2C(=O)NCc1ccccn1
